Results reported in patent US20120122843A1, “Compounds and Their Use for Treatment of Amyloid Beta-Related Diseases” (ASTRAZENECA AB, priority 2010, published 2012).

Assays:
[1] = test system: Aβ42; experiment: Aβ42 release from HEK cells stably expressing APPswe (MSD electrochemiluminescence); format: cell-based, Human; conditions: 4-6 h incubation with test compound, Aβ42 secreted to cell medium
Procedure: The level of activity of the compounds on Aβ formation was tested using the following method:
Compounds were diluted in 100% DMSO and stored at […] prior to use. Human Embryonic Kidney (HEK) cell line stably expressing APP with the Swedish mutation (APPswe) were cultured using Dulbecco's Modified Eagles medium (DMEM) supplied with […] glucose, Na-pyruvate and GlutaMAX with 10% FBS, 100 U/ml penicillin-streptomycin (PEST) respectively, 1× non-essential amino acids (NEAA), […] Hepes, 100 μg/ml Zeocine. Cells at about 80% confluence were washed with PBS, detached from culture flasks using 1× Trypsin/EDTA diluted in PBS, re-suspended in cell media and plated in 384-well poly-d-lysine coated cell culture plates at about 10000-15000 cells/well, in 25 μL cell media. Optionally, cryo-preserved cells (frozen and stored at −140° C. in 90% cell media and 10% DMSO) were thawed, washed and plated as above. Next the cells were incubated for 15-24 h at 37° C. and 5% CO2, after which cell medium was changed. Fresh medium containing test compound diluted ×200 from prepared compound plate was added to the cells before further incubation for 4-6 hours at 37° C. and 5% CO2. After incubation with test compound the amount of Aβ peptides, including Aβ42, Aβ40, Aβ39, Aβ38 and Aβ37, as well as total Aβ levels, secreted to cell medium was analyzed using the electrochemiluminescence assay technology from Meso Scale Discovery (MSD), in combination with specific antibodies raised against the different Aβ peptides. Aβ42, Aβ40 and Aβ38 antibodies were purchased from MSD and Aβ37 and Aβ39 were made in house. Total Aβ was measured using a combination of 6E10 and 4G8 anti Aβ antibodies from MSD. Potential cytotoxic effects of the compounds were usually assayed by measuring the ATP content (ViaLight) from cell lysate.

[2] = test system: Notch; experiment: Release and translocation of Notch intracellular domain into the nucleus, HEK/AENotch cells (NICD immunostaining, ImageXpress); format: cell-based, Human; conditions: 3 μM Lactacystin, 4-6 h incubation, nucleus/cytosol NICD fluorescence ratio
Procedure: The level of activity of the compounds on release and translocation of Notch intracellular domain into the cell nucleus was tested using the following method:
Compounds were diluted in 100% DMSO and stored at […] prior to use. Human Embryonic Kidney cell line overexpressing Notchl-E-human-myc construct (referred to as HEK/AENotch) were cultured in T75 cm^2 or T225 cm^2 cell culture flasks using Dulbecco's Modified Eagles medium (DMEM) supplemented with […] glucose, Na-pyruvate and GlutaMAX with 10% FBS, 100 U/ml penicillin-streptomycin (PEST) respectively, 1× non-essential amino acids (NEAA), […] Hepes and 100 μg/ml Hygromycin. Cells at about 80% confluence were washed with PBS, detached from the flask bottom using 1× Trypsin/EDTA diluted in PBS, re-suspended in cell media and plated in 384-well plates at about 10000 cells/well, in 25 μL cell media. Optionally, cryo-preserved cells (frozen and stored at −140° C. in 90% cell media and 10% DMSO) were thawed, washed and plated as above. Next the cells were incubated for 15-24 h at 37° C. and 5% CO2, after which cell medium was replaced with fresh medium containing 3 μM Lactacystin and test compound diluted ×200 from prepared compound plate giving 0.5% final DMSO concentration, and the highest compound concentration typically 25 μM. Cells were then incubated 4-6 h with test compound before being fixed, washed and immunostained with NICD antibody (rabbit Notch 1 (C-20)). Image acquisition of cytosolic/membrane and nuclear fluorescence as well as subsequent analysis of the nucleus and cytosolic fluorescence ratio was carried out using ImageXpress. Potential cytotoxic effects of the compounds were usually assayed by analysis of nucleus area or cell number.

[3] = Homo sapiens, HEK293, HEK cells expressing APPswe

Structure (SMILES)	IC50 ([1]; HEK cells expressing APPswe) [nM]	IC50 [2] [nM]	IC50 ([2]; Homo sapiens) [nM]	IC50 [1, 3] [nM]
COc1nc(Nc2ccc3c(n2)O[C@H](c2ccc(F)cn2)CN(C)C3C)ccc1-c1cnn(C)c1 (single isomer, unassigned) [Example 51]	19	> 25000		
COc1nc(Nc2ccc3c(n2)OC(C2CC2)CN(C)C3C)ccc1-c1cnn(C)c1 (single isomer, unassigned) [Example 17, 2-Cyclopropyl-N-(6-methoxy-5-(1-methyl-1H-pyrazol-4-yl)pyridin-2-yl)-4,5-dimethyl-2,3,4,5-tetrahydropyrido[3,2-f][1,4]oxazepin-8-amine]	14		> 7900	
COc1nc(Nc2ccc3c(n2)OC(C2CC(F)(F)C2)CN(C)C3)ccc1-c1cnn(C)c1 (single isomer, unassigned) [Example 38, 2-(3,3-Difluorocyclobutyl)-N-(6-methoxy-5-(1-methyl-1H-pyrazol-4-yl)pyridin-2-yl)-4-methyl-2,3,4,5-tetrahydropyrido[3,2-f][1,4]oxazepin-8-amine]	15	> 25000		
COc1nc(Nc2ccc3c(n2)OC(CC(F)(F)F)CN(C)C3)ccc1-c1ccnc(C)n1 (centres unmarked) [Example 46, N-[6-Methoxy-5-(2-methylpyrimidin-4-yl)-2-pyridyl]-4-methyl-2-(2,2,2-trifluoroethyl)-3,5-dihydro-2H-pyrido[3,2-f][1,4]oxazepin-8-amine]			> 25000	33
Cc1cn(-c2ccc(Nc3ccc4c(n3)O[C@H](c3ccccc3)CN(C)C4)nc2)cn1 [Example 14, (R)-4-Methyl-N-(5-(4-methyl-1H-imidazol-1-yl)pyridin-2-yl)-2-phenyl-2,3,4,5-tetrahydropyrido[3,2-f][1,4]oxazepin-8-amine]			> 50000	24
COc1nc(Nc2ccc3c(n2)OC(c2nc(C)cs2)CN(C)C3)ccc1-c1cnn(C)c1 (centres unmarked) [Example 9, N-(6-Methoxy-5-(1-methyl-1H-pyrazol-4-yl)pyridin-2-yl)-4-methyl-2-(4-methylthiazol-2-yl)-2,3,4,5-tetrahydropyrido[3,2-f][1,4]oxazepin-8-amine]			> 15800	19
Cc1cn(-c2ccc(Nc3ccc4c(n3)OC(CC(F)(F)F)CN(C)C4)nc2C#N)cn1 (centres unmarked) [Example 48]			> 25000	61
COc1nc(Nc2ccc3c(n2)OC(CC(F)(F)F)CN(C)C3)ccc1-n1cnc(C)c1 (centres unmarked) [Example 6, N-(6-Methoxy-5-(4-methyl-1H-imidazol-1-yl)pyridin-2-yl)-4-methyl-2-(2,2,2-trifluoroethyl)-2,3,4,5-tetrahydropyrido[3,2-f][1,4]oxazepin-8-amine]			> 7900	18
COc1nc(Nc2ccc3c(n2)OC(c2ncc(C)s2)CN(C)C3)ccc1-n1cnc(C)c1 (single isomer, unassigned; (-)) [Example 65, (−)-N-(6-Methoxy-5-(4-methyl-1H-imidazol-1-yl)pyridin-2-yl)-4-methyl-2-(5-methylthiazol-2-yl)-2,3,4,5-tetrahydropyrido[3,2-f][1,4]oxazepin-8-amine]	9		> 25000	
COc1nc(Nc2cc(C)c3c(n2)OC(C2CCCO2)CN(C)C3)ccc1-c1cnn(C)c1 (single isomer, unassigned) [Example 25, N-(6-Methoxy-5-(1-methyl-1H-pyrazol-4-yl)pyridin-2-yl)-4,6-dimethyl-2-(tetrahydrofuran-2-yl)-2,3,4,5-tetrahydropyrido[3,2-f][1,4]oxazepin-8-amine]			> 7900	73
COc1nc(Nc2ccc3c(n2)OC(CC(F)(F)F)CN(C)C3)ccc1-c1cc(C)ncn1 (centres unmarked) [Example 7, [6-Methoxy-5-(6-methyl-pyrimidin-4-yl)-pyridin-2-yl]-[6-methyl-8-(2,2,2-trifluoro-ethyl)-5,6,7,8-tetrahydro-9-oxa-1,6-diaza-benzocyclohepten-2-yl]-amine]			> 25000	135
COc1nc(Nc2ccc3c(n2)OC(CC(F)(F)F)CN(C)C3)ccc1-c1cnc(C)o1 (single isomer, unassigned) [Example 64, N-[6-Methoxy-5-(2-methyloxazol-5-yl)-2-pyridyl]-4-methyl-2-(2,2,2-trifluoroethyl)-3,5-dihydro-2H-pyrido[3,2-f][1,4]oxazepin-8-amine]	4			
COc1nc(Nc2ccc3c(n2)OC(CC(F)(F)F)CN(C)C3)ccc1-c1cnc(C)o1 (single isomer, unassigned) [Example 63, N-[6-Methoxy-5-(2-methyloxazol-5-yl)-2-pyridyl]-4-methyl-2-(2,2,2-trifluoroethyl)-3,5-dihydro-2H-pyrido[3,2-f][1,4]oxazepin-8-amine]				3
COc1nc(Nc2ccc3c(n2)OC(c2ncccc2C)CN(C)C3)ccc1-c1cnn(C)c1 (centres unmarked) [Example 16, N-(6-Methoxy-5-(1-methyl-1H-pyrazol-4-yl)pyridin-2-yl)-4-methyl-2-(3-methylpyridin-2-yl)-2,3,4,5-tetrahydropyrido[3,2-f][1,4]oxazepin-8-amine]				305
COc1nc(Nc2ccc3c(n2)O[C@H](c2ccccc2)CN(C)C3)ccc1-c1ccc(=O)n(C)c1 [Example 45, (R)-5-(2-Methoxy-6-(4-methyl-2-phenyl-2,3,4,5-tetrahydropyrido[3,2-f][1,4]oxazepin-8-ylamino)pyridin-3-yl)-1-methylpyridin-2(1H)-one]				38
COc1nc(Nc2ccc3c(n2)OC(CC(F)(F)F)CN(C)C3)ccc1-c1ccc(=O)n(C)c1 (single isomer, unassigned) [Example 44, 5-(2-Methoxy-6-(4-methyl-2-(2,2,2-trifluoroethyl)-2,3,4,5-tetrahydropyrido[3,2-f][1,4]oxazepin-8-ylamino)pyridin-3-yl)-1-methylpyridin-2(1H)-one]	374			
CN1Cc2ccc(Nc3ccc(-c4cnn(C)c4)cn3)nc2O[C@H](c2ccccc2)C1 [Example 15, (R)-4-Methyl-N-(5-(1-methyl-1H-pyrazol-4-yl)pyridin-2-yl)-2-phenyl-2,3,4,5-tetrahydropyrido[3,2-f][1,4]oxazepin-8-amine]				137
COc1nc(Nc2ccc3c(n2)OC(CC(F)(F)F)CN(C)C3)ccc1-c1ccc(=O)n(C)c1 (single isomer, unassigned) [Example 43, 5-(2-Methoxy-6-(4-methyl-2-(2,2,2-trifluoroethyl)-2,3,4,5-tetrahydropyrido[3,2-f][1,4]oxazepin-8-ylamino)pyridin-3-yl)-1-methylpyridin-2(1H)-one]				493
COc1nc(Nc2cc(C)c3c(n2)OC(c2nc(C)cs2)CN(C)C3)ccc1-c1cnn(C)c1 (single isomer, unassigned) [Example 21, N-(6-Methoxy-5-(1-methyl-1H-pyrazol-4-yl)pyridin-2-yl)-4,6-dimethyl-2-(4-methylthiazol-2-yl)-2,3,4,5-tetrahydropyrido[3,2-f][1,4]oxazepin-8-amine]	179			
COc1nc(Nc2ccc3c(n2)OC(c2nc(C)cs2)CN(C)C3)ccc1-c1cnn(C)c1 (single isomer, unassigned; (+)) [Example 10, (+)-N-(6-Methoxy-5-(1-methyl-1H-pyrazol-4-yl)pyridin-2-yl)-4-methyl-2-(4-methylthiazol-2-yl)-2,3,4,5-tetrahydropyrido[3,2-f][1,4]oxazepin-8-amine]	226			
COc1nc(Nc2ccc3c(n2)OC(C2CC2)CN(C)C3C)ccc1-c1cnn(C)c1 (single isomer, unassigned) [Example 19, 2-Cyclopropyl-N-(6-methoxy-5-(1-methyl-1H-pyrazol-4-yl)pyridin-2-yl)-4,5-dimethyl-2,3,4,5-tetrahydropyrido[3,2-f][1,4]oxazepin-8-amine]	124			
